One assay deals with BT-549 cells. Kind of assay: CD44 Western blot and CD44+/CD24-/low FACS in BT-549 cells. Type of assay: cell-based, human. As to conditions: for ability to repress CD44 expression with knockdown of TFAP2A: BT549 cells, TFAP2A siRNA, Western blot FIG. 6C; for CD44+/CD24-/low population by FACS analysis / CD44 expression by Western blot: BT-549 cells, FIG. 6A, 10 μM, 2-4 days. The method, then: (§1) The human breast cancer cell lines (MCF-7, SKBR-3, BT-20, BT-549, MCF-10A) were obtained from American Type Culture Collection. sKD-C cells were subcloned from parental MCF-7 cells with stable knockdown of TFAP2C as described (Cyr et al., 2014). ER<-positive tumors and the basal cancer tumor were obtained from surgical resection specimens. Cell suspensions were prepared with gentle collagenase/hyaluronidase (Stemcells) (Ponti et al., 2005). A new cell line was established from the basal tumor cells, called IOWA-1T (manuscript in preparation).
(§2) Western blots were performed as previously described (Cyr et al., 2014; Kulak et al., 2013). For immunoprecipitations anti-TFAP2A, anti-GFP antibody (Life Technologies) or IgG (#sc-2025, Santa Cruz Biotechnology) were cross-linked with Dynabeads protein A (Life Technologies). MCF7 protein was incubated with Dynabeads protein A-Abs complex, protein complexes were washed with DPBS (Gibco) with 0.01% Tween (Research Products International Corp.), and eluted with SDS loading buffer.
(§3) Cells were plated ([…]/10 cm2) and treated with 10 μM gingolic or anacardic acid (Sigma) for 2-4 days and collected for qPCR, Western blot and FACS analysis.
(§4) FACS analysis was performed as previously described (Roederer and Hardy, 2001).
A general note: A western blot detects proteins with antibodies after separation by electrophoresis.

The test system of assay [1] is cells derived from a primary basal cancer. The assay can be described thus: CD44 Western blot and CD44+/CD24-/low FACS in cells from a primary basal breast cancer. Type of assay: cell-based, human. As to conditions: for CD44 expression by Western blot: cells derived from a primary basal cancer, FIG. 6A; for CD44+/hi/CD24-/low CSC population: cells harvested from primary basal breast tumor refractory to chemotherapy, treated in vitro, FACS FIG. 6A. The method, then:
In addition, cells from a primary basal breast cancer were treated in vitro in parallel. The cancer was from a patient with locally advanced breast cancer that was refractory to conventional chemotherapy. Remarkably, treatment with GA or AA cleared the CD44^+/hi/CD24^−/low CSC population from the cells harvested from the primary tumor (FIG. 6A, last panel). By contrast, GA/AA treatment of MCF-10A cells, a normal breast cell line model, had no effect on CD44 expression and had no effect on the percentage of cells expressing stem cell markers.
as §1, §2, §3, §4

The subject of assay [2] is pancreatic carcinoma Panc-1 cell line. Kind of assay: CD44 Western blot in Panc-1 pancreatic carcinoma. Type of assay: cell-based. As to conditions: Panc-1, 96 h treatment; FIG. 18. The method, then:
FIG. 18: Western blot, CD44 downregulation, Panc-1 pancreatic carcinoma was treated with ginkgolic and anacardic acids, 96 h.
Similar downregulation of stem cell marker CD44 was determined in pancreatic carcinoma Panc-1 cell line (FIG. 18) and undifferentiated thyroid cell line 8505c (FIG. 19) after 96 h treatment with SUMO inhibitors anacardic and ginkgolic acids. • Woodfield, G. W., Horan, A. D., Chen, Y. & Weigel, R. J. TFAP2C controls hormone response in breast cancer cells through multiple pathways of estrogen signaling. Cancer Res 67, 8439-8443 (2007). • Woodfield, G. W., Chen, Y., Bair, T. B., Domann, F. E. & Weigel, R. J. Identification of primary gene targets of TFAP2C in hormone responsive breast carcinoma cells. Genes Chromosomes Cancer 49, 948-962, doi:10.1002/gcc.20807 (2010). • Tan, S. K. et al. AP-2gamma regulates oestrogen receptor-mediated longrange chromatin interaction and gene transcription. Embo J 30, 2569-2581, doi:10.1038/emboj.2011.151 (2011). • Sorlie, T. et al. Gene expression patterns of breast carcinomas distinguish tumor subclasses with clinical implications. Proc Natl Acad Sci USA 98, 10869-10874. (2001). • Kao, J. et al. Molecular profiling of breast cancer cell lines defines relevant tumor models and provides a resource for cancer gene discovery. […]

Molecules are shown by their SMILES.

`CCCCCCCCCCCCCCCc1cccc(O)c1C(=O)O` [AA, Anacardic acid (C15:0)]: in the assay on BT-549 cells, the “ability to repress CD44 expression with knockdown of TFAP2A” value was “completely eliminated”, the “CD44+/CD24-/low population by FACS analysis” value is on record as “significantly reduced” and the “CD44 expression by Western blot” value is given as “inhibited”. Moreover, in assay [1], the “CD44 expression by Western blot” value is “inhibited” and the “CD44+/hi/CD24-/low CSC population” value is “cleared”. Also, in assay [2], the “stem cell marker CD44 (Western blot)” value was “downregulation”.

For the molecule `CCCCCC/C=C\CCCCCCCc1cccc(O)c1C(=O)O` [GA, (Z)-6-(Pentadec-8-enyl)-2-hydroxybenzoic acid], in the assay on BT-549 cells, the “ability to repress CD44 expression with knockdown of TFAP2A” value is “completely eliminated”, the “CD44+/CD24-/low population by FACS analysis” value is “significantly reduced” and the “CD44 expression by Western blot” value is “inhibited”. For the same molecule, in assay [1], the “CD44 expression by Western blot” value is “inhibited” and the “CD44+/hi/CD24-/low CSC population” value is “cleared”. For the same molecule, the “stem cell marker CD44 (Western blot)” value in assay [2] is “downregulation”.

(Values after patent US20160101076A1, “Use of Sumoylation Inhibitors for Treating Cancer” (priority 2013, published 2016).)
